Experimental data taken from patent US8906852B2 (MethylGene Inc., priority 2010, dated 2014).
pIC50: −log10 of the molar value.

target: T1, VEGFR/KDR (Homo sapiens, UniProt P35968); experiment: VEGFR/KDR kinase inhibition, DELFIA assay; assay type: biochemical; conditions: ATP 0.6 uM (2x Km), enzyme 5 nM
T1 construct: made in house; host or cells: Sf9 cells (Spodoptera frugiperda), baculovirus
How it was run: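 DELFIA time-resolved fluorescence readout using Europium-tagged anti-phosphotyrosine antibody after EDTA stop. Kinase reaction on plate-bound poly(Glu4,Tyr) ran 10-30 min at 30° C with 5 nM enzyme and 0.6 uM ATP (2× Km), following 4 min on-ice pre-incubation with compound; IC50 over a concentration range.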

T1 sequence (P35968 806-1356): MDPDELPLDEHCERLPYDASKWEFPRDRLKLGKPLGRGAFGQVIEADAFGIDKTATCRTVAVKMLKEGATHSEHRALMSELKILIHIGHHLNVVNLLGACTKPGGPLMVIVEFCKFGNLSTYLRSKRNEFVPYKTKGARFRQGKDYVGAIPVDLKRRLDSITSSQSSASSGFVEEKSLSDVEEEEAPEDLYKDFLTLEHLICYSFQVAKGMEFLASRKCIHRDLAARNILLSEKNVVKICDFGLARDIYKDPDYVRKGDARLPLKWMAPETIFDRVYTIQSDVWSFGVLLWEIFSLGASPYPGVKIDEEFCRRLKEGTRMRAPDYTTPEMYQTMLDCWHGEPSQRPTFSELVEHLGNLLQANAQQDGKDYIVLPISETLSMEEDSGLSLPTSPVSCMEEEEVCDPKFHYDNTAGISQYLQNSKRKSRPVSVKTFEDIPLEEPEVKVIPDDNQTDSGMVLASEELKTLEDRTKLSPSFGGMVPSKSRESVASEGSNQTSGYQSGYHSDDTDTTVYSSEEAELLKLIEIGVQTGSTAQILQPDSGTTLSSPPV

| pIC50 | SMILES |
| --- | --- |
| > 7.30 | CN1CCN(CCn2cnc(-c3cc4nccc(Oc5ccc(NC(=O)NC6CC6)cc5F)c4s3)c2)CC1 [Compound 266, 1-Cyclopropyl-3-(3-fluoro-4-(2-(1-(2-(4-methylpiperazin-1-yl)ethyl)-1H-imidazol-4-yl)thieno[3,2-b]pyridin-7-yloxy)phenyl)urea] |
| > 7.30 | COC(=O)CCN1CCN(Cc2ccc(-c3cc4nccc(Oc5ccc(NC(=O)NC6CC6)cc5F)c4s3)nc2)CC1 [Compound 507, methyl 3-(4-((6-(7-(4-(3-cyclopropylureido)-2-fluorophenoxy)thieno[3,2-b]pyridin-2-yl)pyridin-3-yl)methyl)piperazin-1-yl)propanoate] |
| 7.00 to 7.30 | COCCN(Cc1ccc(-c2cc3nccc(Oc4ccc(NC(=O)NC5CC5)cc4F)c3s2)nc1)CC(F)(F)F [Compound 8, 1-cyclopropyl-3-(3-fluoro-4-(2-(5-(((2-methoxyethyl)(2,2,2-trifluoroethyl)amino)-methyl)pyridin-2-yl)thieno [3,2-b]pyridin-7-yloxy)phenyl)urea] |
| > 7.30 | NC1CCN(Cc2ccc(-c3cc4nccc(Oc5ccc(NC(=O)NC6CC6)cc5F)c4s3)nc2)CC1 [Compound 343, 1-(4-(2-(5-((4-Aminopiperidin-1-yl)methyl)pyridin-2-yl)thieno[3,2-b]pyridin-7-yloxy)-3-fluorophenyl)-3-cyclopropylurea] |
| > 7.30 | COCCN(Cc1cnc(-c2cc3nccc(Oc4ccc(NC(=O)NC5CC5)cc4F)c3s2)n1C)C(C)=O [Compound 212, N-((2-(7-(4-(3-cyclopropylureido)-2-fluorophenoxy)thieno[3,2-b]pyridin-2-yl)-1-methyl-1H-imidazol-5-yl)methyl)-N-(2-methoxyethyl)acetamide] |
| > 7.30 | CS(=O)(=O)N1CCN(Cc2ccc(-c3cc4nccc(Oc5ccc(NC(=O)NC6CC6)cc5F)c4s3)nc2)CC1 [Compound 54-F, 1-cyclopropyl-3-(3-fluoro-4-(2-(5-((4-(methylsulfonyl)piperazin-l-yl)methyl)pyridin-2-yl)thieno[3,2-b]pyridin-7-yloxy)phenyl)urea] |
| > 7.30 | O=C(Nc1ccc(Oc2ccnc3cc(-c4ccc(CCN5CCCC5=O)cn4)sc23)c(F)c1)NC1CC1 [Compound 295, 1-cyclopropyl-3-(3-fluoro-4-(2-(5-(2-(2-oxopyrrolidin-1-yl)ethyl)pyridin-2-yl)thieno[3,2-b]pyridin-7-yloxy)phenyl)urea] |
| > 7.30 | COCCN(CCn1cc(-c2cc3nccc(Oc4ccc(NC(=O)NC5CC5)cc4F)c3s2)cn1)C(=O)CO [Compound 257, N-(2-(4-(7-(4-(3-cyclopropylureido)-2-fluorophenoxy)thieno[3,2-b]-pyridin-2-yl)-1H-pyrazol-1-yl)ethyl)-2-hydroxy-N-(2-methoxyethyl)acetamide] |
| > 7.30 | O=C(Nc1ccc(Oc2ccnc3cc(-c4cn(CCN5CCOCC5)nn4)sc23)c(F)c1)NC1CC1 [Compound 364] |
| > 7.30 | O=C(Nc1ccc(Oc2ccnc3cc(-c4ccc(CN5CCN(Cc6ccncc6)CC5)cn4)sc23)c(F)c1)NC1CC1 [Compound 325, 1-cyclopropyl-3-(3-fluoro-4-(2-(5-((4-(pyridin-4-ylmethyl)piperazin-1-yl)methyl)pyridin-2-yl)thieno[3,2-b]pyridin-7-yloxy)phenyl)urea] |
| > 7.30 | O=C(Nc1ccc(Oc2ccnc3cc(-c4ccc(CN5CCN(CCF)CC5)cn4)sc23)c(F)c1)NC1CC1 [Compound 420, 1-Cyclopropyl-3-(3-fluoro-4-(2-(5-((4-(2-fluoroethyl)piperazin-1-yl)methyl)pyridin-2-yl)thieno[3,2-b]pyridin-7-yloxy)phenyl)urea] |
| > 7.30 | CS(=O)(=O)c1cccc(NC(=O)Nc2ccc(Oc3ccnc4cc(-c5ccc(C(=O)N6CCCC6)cc5)sc34)c(F)c2)c1 [Compound 130, 1-(3-fluoro-4-(2-(4-(pyrrolidine-1-carbonyl)phenyl)thieno[3,2-b]pyridin-7-yloxy)phenyl)-3-(3-(methylsulfonyl)phenyl)urea] |
| > 7.30 | CN1CCN(Cc2ccc(-c3cc4nccc(Oc5ccc(NC(=O)NC6CC6)cc5F)c4s3)nc2)C1=O [Compound 141, 1-cyclopropyl-3-(3-fluoro-4-(2-(5-((3-methyl-2-oxoimidazolidin-1-yl)methyl)pyridin-2-yl)thieno[3,2-b]pyridin-7-yloxy)phenyl)urea] |
| > 7.30 | O=C(Nc1ccc(Oc2ccnc3cc(-c4ccc(CN5CCCC5=O)cn4)sc23)c(F)c1F)NC1CC1 [Compound 169, 1-cyclopropyl-3-(2,3-difluoro-4-(2-(5-((2-oxopyrrolidin-1-yl)methyl)pyridin-2-yl)thieno[3,2-b]pyridin-7-yloxy)phenyl)urea] |
| > 7.30 | O=C(Nc1ccc(Oc2ccnc3cc(-c4cn(CCC(=O)N5CCOCC5)nn4)sc23)c(F)c1)NC1CC1 [Compound 377] |
| > 7.30 | CC1(C)CN(Cc2ccc(-c3cc4nccc(Oc5ccc(NC(=O)NC6CC6)cc5F)c4s3)nc2)CCN1CCO [Compound 500, 1-cyclopropyl-3-(3-fluoro-4-(2-(5-((4-(2-hydroxyethyl)-3,3-dimethylpiperazin-1-yl)methyl)pyridin-2-yl)thieno[3,2-b]pyridin-7-yloxy)phenyl)urea] |
| > 7.30 | O=C(O)CNC(=O)N1CCN(Cc2ccc(-c3cc4nccc(Oc5ccc(NC(=O)NC6CC6)cc5F)c4s3)nc2)CC1 [Compound 558] |

| pIC50 | SMILES |
| --- | --- |
| > 7.30 | N#CCCN1CCN(Cc2ccc(-c3cc4nccc(Oc5ccc(NC(=O)NC6CC6)cc5F)c4s3)nc2)CC1 [Compound 57, 1-(4-(2-(5-((4-(2-cyanoethyl)piperazin-1-yl)methyl)pyridin-2-yl)thieno[3,2-b]-pyridin-7-yloxy)-3-fluorophcnyl)-3-cyclopropylurea] |
| > 7.30 | CCNC(=O)N(CCOC)Cc1cnc(-c2cc3nccc(Oc4ccc(NC(=O)NC5CC5)cc4F)c3s2)n1C [Compound 161-B, 1-((2-(7-(4-cyclopropylaminocarbonylamino-2-fluorophenoxy)thieno[3,2-b]pyridin-2-yl)-1-methyl-1H-imidazol-5-yl)methyl)-3-ethyl-1-(2-methoxyethyl)urea] |
| > 7.30 | O=C(Cn1cc(-c2cc3nccc(Oc4ccc(NC(=O)NC5CC5)cc4F)c3s2)nn1)NCc1cccnc1 [Compound 381] |
| > 7.30 | CCNC(=O)N1CC(OCc2ccc(-c3cc4nccc(Oc5ccc(NC(=O)NC6CC6)cc5F)c4s3)nc2)C1 [Compound 409] |
| > 7.30 | CC(C)NC(=O)Nc1ccc(Oc2ccnc3cc(-c4ccc(C(=O)N5CCCC5)cc4)sc23)c(F)c1 [Compound 128, 1-(3-fluoro-4-(2-(4-(pyrrolidine-1-carbonyl)phenyl)thieno[3,2-b]pyridin-7-yloxy)phenyl)-3-isopropylurea] |
| > 7.30 | CCOC(=O)CC(C)N1CCN(Cc2ccc(-c3cc4nccc(Oc5ccc(NC(=O)NC6CC6)cc5F)c4s3)nc2)CC1 (stereo not shown) [Compound 515, Ethyl 3-(4-((6-(7-(4-(3-cyclopropylureido)-2-fluorophenoxy)thieno[3,2-b]pyridin-2-yl)pyridin-3-yl)methyl)piperazin-1-yl)butanoate] |
| > 7.30 | O=C(Nc1ccc(Oc2ccnc3cc(-c4ccc(CN5CCN(Cc6ccccn6)CC5)cn4)sc23)c(F)c1)NC1CC1 [Compound 326, 1-cyclopropyl-3-(3-fluoro-4-(2-(5-((4-(pyridin-2-ylmethyl)piperazin-1-yl)methyl)pyridin-2-yl)thieno[3,2-b]pyridin-7-yloxy)phenyl)urea] |
| > 7.30 | CC(C)(C)OC(=O)N1CCN(C(=O)Cn2cc(-c3cc4nccc(Oc5ccc(NC(=O)NC6CC6)cc5F)c4s3)nn2)CC1 [Compound 388] |
| > 7.30 | O=C(O)CCCNCc1ccc(-c2cc3nccc(Oc4ccc(NC(=O)NC5CC5)c(F)c4F)c3s2)nc1 [Compound 168, 4-((6-(7-(4-(3-cyclopropylureido)-2,3-difluorophenoxy)thieno[3,2-b]pyridin-2-yl)pyridin-3-yl)methylamino)butanoic acid] |
| > 7.30 | O=C(O)CCCN1CCN(Cc2ccc(-c3cc4nccc(Oc5ccc(NC(=O)NC6CC6)cc5F)c4s3)nc2)CC1 [Compound 519, 4-(4-((6-(7-(4-(3-cyclopropylureido)-2-fluorophenoxy)thieno[3,2-b]pyridin-2-yl)pyridin-3-yl)methyl)piperazin-1-yl)butanoic acid] |
| > 7.30 | O=C(Nc1ccc(Oc2ccnc3cc(-c4ccc(CN5CCN(CCOCCO)CC5)cn4)sc23)c(F)c1)NC1CC1 [Compound 327] |
| > 7.30 | CN(CCO)Cc1ccc(-c2cc3nccc(Oc4ccc(NC(=O)NC5CC5)cc4F)c3s2)nc1 [Compound 50-A] |
| > 7.30 | O=C(Nc1ccc(Oc2ccnc3cc(C(=O)N4CC[C@@H](O)C4)sc23)c(F)c1)NC1CC1 [Compound 460, (R)-1-cyclopropyl-3-(3-fluoro-4-(2-(3-hydroxypyrrolidine-1-carbonyl)thieno[3,2-b]pyridin-7-yloxy)phenyl)urea] |
| > 7.30 | O=C(Nc1ccc(Oc2ccnc3cc(-c4ccc(CN5CCN(CCc6nnn[nH]6)CC5)cn4)sc23)c(F)c1)NC1CC1 [Compound 512, 1-(4-(2-(5-((4-(2-(1H-tetrazol-5-yl)ethyl)piperazin-1-yl)methyl)pyridin-2-yl)thieno[3,2-b]pyridin-7-yloxy)-3-fluorophenyl)-3-cyclopropylurea] |
| > 7.30 | O=C(Nc1ccc(Oc2ccnc3cc(-c4ccc(CNc5cc[nH]n5)cn4)sc23)c(F)c1)NC1CC1 [Compound 332, 1-(4-(2-(5-((1H-Pyrazol-3-ylamino)methyl)pyridin-2-yl)thieno[3,2-b]pyridin-7-yloxy)-3-fluorophenyl)-3-cyclopropylurea] |
| > 7.30 | O=C(Nc1ccc(Oc2ccnc3cc(-c4ccc(CN5CCN(CCN6CCOCC6)CC5)cn4)sc23)c(F)c1)NC1CC1 [Compound 54-A, 1-cyclopropyl-3-(3-fluoro-4-(2-(5-((4-(2-morpholinoethyl)piperazin-1-yl)methyl)pyridin-2-yl)thieno[3,2-b]pyridin-7-yloxy)phenyl)urea] |
| > 7.30 | CC(C)(C)C(=O)OC1CN(C(=O)c2cc3nccc(Oc4ccc(NC(=O)NC5CC5)cc4F)c3s2)C1 [Compound 454] |
